# Values of other authors, collected in patent publication US6361800B1 (Cooper Concepts, Inc., priority 2000, dated 2002).
# Where two headings read alike, the source gives them in different places.
# Settings: 100 I.U. taken for two years or longer
substance,measurement,setting,value
vitamin E,reduced deaths of coronary artery disease,"39,910 male health professionals",37%
same,reduced deaths of coronary artery disease,"87,245 nurses",40%
